# How the values were obtained:
# Aphidius rhopalosiphi = assay: LR50; higher = less toxic; details: not reported, mortality
# Daphnia magna = details: chronic/long-term; duration: 21 days; growth
# Lepomis macrochirus = details: acute; duration: 96 hours; mortality
# Oncorhynchus mykiss = details: acute; duration: 96 hours; mortality
# Apis mellifera = details: acute, mortality
# Folsomia candida = details: chronic/long-term; reproduction
# Anas platyrhynchos = details: acute; oral; unspecified; mortality
# Oryctolagus sp. = details: reproduction developmental
# Hypoaspis aculeifer = details: chronic/long-term; reproduction
compound,measurement,setting,value
COc1cc(OC)nc(NC(=O)NS(=O)(=O)c2cc(NC=O)ccc2C(=O)N(C)C)n1 [Foramsulfuron],LR50,Aphidius rhopalosiphi; duration: 7 days,> 60 g/ha
same,LR50,Aphidius rhopalosiphi,> 5.6 g/ha
same,LD50,"Colinus virginianus; acute, oral, mortality",> 2000 mg/kg
same,NOEL,Colinus virginianus; reproduction developmental,104 mg/kg-day
same,NOEC,Daphnia magna,100 mg/L
same,LC50,Lepomis macrochirus,> 100 µg/mL
same,LC50,Oncorhynchus mykiss,> 100 µg/mL
same,LD50,"Rattus norvegicus; acute, oral, mortality",> 5000 mg/kg
same,NOEL,"Rattus norvegicus; reproduction developmental, F, reproduction",1430 mg/kg-day
same,NOAEL,"Rattus norvegicus; reproduction developmental, duration: 2 years, reproduction",25 mg/kg-day
same,LD50,Apis mellifera; dermal,> 4.66 µg/piece
same,LD50,"Apis mellifera; duration: 48 hours, oral, unspecified",> 5 µg/piece
same,NOEC,Folsomia candida,100 mg/kg
same,LD50,Anas platyrhynchos,> 2000 mg/kg
same,NOAEL,Oryctolagus sp.; body weight,50 mg/kg-day
same,NOEL,Oryctolagus sp.; no effects,500 mg/kg-day
same,NOEC,Hypoaspis aculeifer,1000 mg/kg

# — EPA's ToxValDB 9.5 (doi:10.2903/j.efsa.2016.4421)
